Source: patent publication US7964594B1, “Amino oxazine derivatives” (Hoffmann-La Roche Inc., priority 2009, dated 2011)

Biological target: T1, BACE2 (Rattus norvegicus, UniProt Q6IE75)
T1 construct: endogenous cellular BACE2 in the Ins1e rat cell line; endogenous in cells; host or cells: INS-TMEM27 (INS1e-derived rat insulinoma cell line with doxycycline-inducible full-length hTMEM27)
T1 sequence (Q6IE75 63-514): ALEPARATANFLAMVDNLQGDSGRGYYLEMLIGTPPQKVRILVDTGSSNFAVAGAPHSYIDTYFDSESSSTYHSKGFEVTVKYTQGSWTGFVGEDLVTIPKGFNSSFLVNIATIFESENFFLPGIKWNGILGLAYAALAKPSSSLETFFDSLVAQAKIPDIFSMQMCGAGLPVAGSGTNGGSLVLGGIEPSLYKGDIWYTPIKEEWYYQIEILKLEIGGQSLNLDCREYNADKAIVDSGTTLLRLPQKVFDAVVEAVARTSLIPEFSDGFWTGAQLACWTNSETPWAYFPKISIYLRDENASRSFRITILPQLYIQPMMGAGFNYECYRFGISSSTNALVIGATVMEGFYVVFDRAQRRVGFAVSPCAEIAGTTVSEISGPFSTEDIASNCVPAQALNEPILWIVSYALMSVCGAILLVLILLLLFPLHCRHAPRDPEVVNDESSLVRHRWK
Assay: Assay for BACE inhibition by measuring cellular TMEM27 cleavage (INS-TMEM27 cells, ELISA of shed TMEM27)
Type: cell-based
Conditions: inhibition of human TMEM27 cleavage by endogenous cellular BACE2 in Ins1e rat cell line; ELISA of culture medium
From the text: Assay for BACE Inhibition by Measuring Cellular TMEM27 Cleavage
The assay uses the principle of inhibition of human TMEM27 cleavage by endogenous cellular BACE2 in the Ins1e rat cell line and shedding from the cell surface into the culture medium, followed by detection in an ELISA assay. Inhibition of BACE2 prevents the cleavage and shedding in a dose-dependent manner.
The stable cell line “INS-TMEM27” represents an INS1e-derived cell line with inducible expression (using the TetOn system) of full-length hTMEM27 in a doxycycline-dependent manner. The cells were cultured throughout the experiment in RPMI1640+Glutamax (Invitrogen) Penicillin/Streptomycin, 10% Fetal bovine serum, […], […], 100 micrograms/ml G418 and 100 microgram/ml hygromycin and were grown in adherent culture at 37° C. in a standard CO2 cell culture incubator.
INS-TMEM27 cells were seeded in 96-well plates. After 2 days in culture, BACE2 inhibitor was added in a range of concentrations as required by the assay and after a further two hours, doxycycline was added to a final concentration of 500 ng/ml. The cells were incubated for a further 46 hours and the supernatant harvested for detection of shed TMEM27.
An ELISA assay (using a pair of mouse anti-human-TMEM27 antibodies, raised against the extracellular domain of TMEM27) was used for detection of TMEM27 in the culture medium. An IC50 for BACE2 inhibition was calculated using the ELISA readout for each inhibitor concentration with standard curve-fitting software XLfit (IDBS) for the Excel spreadsheet program.

IC50 [nM]	SMILES
22	C[C@@]1(c2cc(NC(=O)c3ncccc3C(F)(F)F)ccc2F)CCOC(N)=N1 [Example 16, 3-Trifluoromethyl-pyridine-2-carboxylic acid [3-((S)-2-amino-4-methyl-5,6-dihydro-4H-[1,3]oxazin-4-yl)-4-fluoro-phenyl]-amide]
11	C[C@@]1(c2cc(NC(=O)c3ncc(C(F)(F)F)cc3Cl)ccc2F)CCOC(N)=N1 [Example 31, 3-Chloro-5-trifluoromethyl-pyridine-2-carboxylic acid [3-((S)-2-amino-4-methyl-5,6-dihydro-4H-[1,3]oxazin-4-yl)-4-fluoro-phenyl]-amide]
60	NC1=N[C@@]2(c3cc(NC(=O)c4ccc(Cl)cn4)ccc3F)COC[C@H]2CO1 [Example 65, 5-Chloro-pyridine-2-carboxylic acid [3-((4aS,7aS)-2-amino-4a,5-dihydro-4H-furo[3,4-d][1,3]oxazin-7a-yl)-4-fluoro-phenyl]-amide]
620	C[C@]1(c2cc(NC(=O)c3c(F)cccc3F)ccc2F)N=C(N)OCC12CC2 [Example 47, (S)—N-(3-(6-Amino-8-methyl-5-oxa-7-azaspiro[2.5]oct-6-en-8-yl)-4-fluorophenyl)-2,6-difluorobenzamide]
18	C[C@]1(c2cc(NC(=O)c3ccccn3)ccc2F)N=C(N)OCC12CC2 [Example 43, Pyridine-2-carboxylic acid [3-((S)-6-amino-8-methyl-5-oxa-7-aza-spiro[2.5]oct-6-en-8-yl)-4-fluoro-phenyl]-amide]
6	Cn1cc(Cl)c(C(=O)Nc2ccc(F)c([C@@]3(C)N=C(N)OCC34CC4)c2)n1 [Example 56, (S)—N-(3-(6-Amino-8-methyl-5-oxa-7-azaspiro[2.5]oct-6-en-8-yl)-4-fluorophenyl)-4-chloro-1-methyl-1H-pyrazole-3-carboxamide]
